From PMC12040169 (PLOS Biology, 2025)

Assay: in vitro
Conditions: human, hela cells, % viability

Compound | viability at 28.5 h, 10 µM [%]
O=C(NCCc1cccs1)N1CCC2(CC1)OCCc1c2[nH]c2ccccc12 [CBK047129] | 85.4
O=C(c1nccs1)C1CCN(C(=O)c2ccccc2F)CC1 [CBK284174] | 93.3
COC(=O)c1ccsc1NS(=O)(=O)c1ccc(Oc2ccccc2)cc1 [CBK039064] | 108
O=C1CC(=O)N(Cc2ccc(F)cc2)C(=O)N1 [CBK291156] | 95.2
CSc1ccccc1C(=O)NCCCn1ccnc1 [CBK269749] | 85.3
Cc1cccc(OCC(=O)Nc2ccc(S(=O)(=O)N3CCOCC3)cc2)c1 [CBK264110] | 94.6
COCCn1c(SC(C)C(=O)NC2CC2)nc2ccc(Br)cc2c1=O (centres unmarked) [CBK305481] | 108
COC(=O)[C@H]1Cc2cc3c(cc2[C@H]1c1cc(OC)c(OC)c(OC)c1)OCO3 [CBK200105] | 54.8
COCc1cn(C[C@H]2CC3CCN2C[C@@H]3C(=O)NC(C)C)nn1 (some centres unmarked) [CBK288733] | 89.2
CCN(CC)CCO/N=C1\CC2(CCCCC2)c2ccccc21 [CBK013325] | 101
CCOc1ccc(S(=O)(=O)NCc2ccncc2)cc1NC(C)=O [CBK269527] | 88
CC/C(=C\c1sc2ccc3ccccc3c2[n+]1CCCS(=O)[O-])SC [CBK264941] | 107
Cc1cc(C)nc(NS(=O)(=O)c2ccc(Nc3ncnc(N)c3[N+](=O)[O-])cc2)n1 [CBK267217] | 96.6
Cn1nc(C2CCCCC2)cc1[C@H]1CN2CC[C@H]1C[C@@H]2CNC(=O)c1ccco1 [CBK289106] | 95.3
O=C(NCCn1c(C(F)(F)F)cc(=O)c2cccc(F)c21)C1CC1 [CBK284807] | 85.5
COc1cncc(C(NC(=O)c2ccc3c(c2)CCC3)[C@H]2C[C@H](O)C2)c1 (some centres unmarked) [CBK307646] | 105
O=C(NC(N1CCOCC1)C(Cl)(Cl)Cl)c1ccc(Cl)cc1 (centres unmarked) [CBK261084] | 94.2
C[C@H](Nc1cncc(-c2cccnc2)n1)c1ccccc1 [CBK065807] | 96.7
COC(=O)CCn1c(-c2ccncc2)cc2cccnc21 [CBK282592] | 65.2
O=C(NCCn1nc(-c2ccco2)ccc1=O)c1cccs1 [CBK283704] | 92.5
COc1c(C)cccc1C(=O)NC(=S)Nc1sc2c(c1C(N)=O)CCC2 [CBK265587] | 84.4
CSCCC(=O)N1CCN(C(=O)c2ccco2)CC1 [CBK144468] | 93.5
Cc1cc(OCC(=O)Nc2ccccc2N2CCN(S(C)(=O)=O)CC2)ccc1Cl [CBK269410] | 103

Compound | viability at 28.5 h, 10 µM [%]
Cc1csc(C(Cc2ccsc2)NC(=O)Cc2ccccn2)n1 (centres unmarked) [CBK285097] | 94.9
CNC(=O)Cn1nc(C)c2cnn(-c3ccccc3)c2c1=O [CBK287669] | 92.8
COc1cc2c(cc1NC(=O)C/C(C)=N/NC(=O)c1ccoc1C)oc1ccccc12 [CBK262953] | 112
Cc1onc(-c2ccccc2)c1CNC(=O)CC1CC1 [CBK144072] | 85.4
COc1ccc(-c2cc(=O)[nH]c(=S)s2)cc1 [CBK288355] | 90.5
N#Cc1cccc(C(=O)N2CCCC3(CCN(Cc4ccccc4)C3)C2)c1 (centres unmarked) [CBK136893] | 92
O=c1[nH]c2ncc(-c3ccco3)nc2n1Cc1ccc(F)c(Cl)c1 [CBK064393] | 108
Cc1nn(C)c(C)c1NC(=O)COc1ccc2c(c1)CCCC2=O [CBK304963] | 98.5
O=C(c1cccnc1)C1CCN(C(=O)Cc2ccsc2)CC1 [CBK283517] | 90.7
O=C(O)c1c[nH]nc1-c1ccc(Br)cc1 [CBK266368] | 91.5
N#CC(C(N)=O)C(c1ccc(Br)cc1)c1c(-c2ccccc2)nn(-c2nc(-c3ccccc3)cs2)c1O (centres unmarked) [CBK262697] | 107
COc1ccc(C(=O)NCCCCCC(=O)O)cc1 [CBK287146] | 109
CC(C)Nc1cncc(OC2CCN(C)C2)n1 (centres unmarked) [CBK115598] | 90.8
O=C(O)Cc1ccc(NC(=S)Nc2cccc(Cl)c2Cl)cc1 [CBK267064] | 107
Cc1ccc(C2CC(c3cccnc3)Nc3nnnn32)cc1 (centres unmarked) [CBK288067] | 97.9
O=C(NC1CCCc2c1cnn2Cc1ccccc1)c1ccncc1 (centres unmarked) [CBK282250] | 93.8
O=C1Nc2ccc(Br)cc2C(=O)N2CCN(C(=O)c3ccccc3)C[C@H]12 [CBK289589] | 121
CC(C)(C)C(=O)N1CCC(n2nc(-c3cccs3)oc2=O)CC1 [CBK282423] | 88
O=c1[nH]c(=O)c2cc(S(=O)(=O)Nc3cccc(CCc4ccncc4)c3)ccc2[nH]1 [CBK286397] | 103
CSc1nc(N/N=C/c2ccc(Cl)cc2)c2c3c(sc2n1)CN(C)CC3 [CBK262588] | 107
CCOC(=O)N1CCN(C2CCCN(Cc3c(C)nn(C)c3Cl)C2)CC1 (centres unmarked) [CBK306853] | 96.2
CC1(C)CC(=O)C2=C(C1)c1c(ccc3ccccc13)NC2c1ccc(-c2ccc(O)c(C(=O)O)c2)o1 (centres unmarked) [CBK261823] | 108
Cc1cccc(C)c1NC(=O)CC1Sc2ccccc2NC1=O (centres unmarked) [CBK267160] | 97

Compound | viability at 28.5 h, 10 µM [%]
CC(=O)OCC(=O)Nc1ccc2cc(Br)cnc2n1 [CBK063311] | 91.1
CCOCCn1c(=O)c2c(nc3oc(C(C)(C)C)cn32)n(C)c1=O [CBK307567] | 103
CC(C)NC(=O)c1cc(C2CN(C(=O)CCc3ccccc3F)CCO2)nc2ccccc12 (centres unmarked) [CBK285893] | 109
CCOC(=O)N1CCC(NC(=O)N2CCN(c3ccc(F)cc3)CC2)CC1 [CBK156429] | 106
COc1ccc(C2NC(C(=O)O)CS2)cc1CN1C[C@@H]2C[C@H](C1)c1cccc(=O)n1C2 (some centres unmarked) [CBK020798] | 93.8
O=C(NCCN1CCCC1=O)Nc1ccccc1 [CBK263517] | 116
CN(C(=O)C1CCN(S(=O)(=O)c2cn(C)cn2)CC1)C(c1ccc(F)cc1)c1ccccn1 (centres unmarked) [CBK060229] | 83.8
COc1ccc(-c2noc(CNC(=O)Nc3ccc(F)cc3)n2)cc1OC [CBK269784] | 97.2
Cc1cc2ccccc2n2c(=O)n(CC(=O)N3CCC(C)CC3)nc12 [CBK283881] | 92.7
Cc1cccnc1C(NC(=O)C1CCN(S(=O)(=O)c2cccs2)CC1)c1cccs1 (centres unmarked) [CBK060147] | 111
COc1ccc(SCCCCN2CCC3(CC2)OCCc2c3[nH]c3ccccc23)cc1 [CBK113464T] | 0.266
COCc1cc(C)nc(NCCO)c1C#N [CBK262556] | 96.6
O=C(c1cn2cc(-c3cccs3)n(CC3CC3)c(=O)c2n1)N1CC(O)C1 [CBK306979] | 97.4
CC(CN(C)C(=O)c1cocn1)Oc1ccc(Cl)c(Cl)c1 (centres unmarked) [CBK304285] | 97.6
COc1ccccc1CN(CC(C)(C)CN)C(=O)NCc1ccc(F)cc1 [CBK002470C] | 87
CCN(CC(O)COc1ccc2ccccc2c1)S(=O)(=O)O (centres unmarked) [CBK261113K] | 87.2
CCn1ncc(Cn2cc(NC(=O)C3CCCCC3C(=O)O)cn2)c1C (centres unmarked) [CBK286859] | 98.9
COc1ncc(-c2nccnc2N[C@@H]2CCN(Cc3ccccc3)C2)c(OC)n1 [CBK036926] | 101
CN(C)S(=O)(=O)c1ccc(Cl)c(C(=O)Nc2cccc(C(=O)O)c2)c1 [CBK265727] | 90.9
COc1ccc(C(C)N(CCN2CCOCC2)C(=O)NCc2cccnc2)cc1OC (centres unmarked) [CBK158986] | 114
Cn1nccc1C(=O)N1CCCC(c2cc3cccnc3[nH]2)C1 (centres unmarked) [CBK284929] | 92.7
N=C(N)NCCCc1c[nH]c2ccccc12 [CBK012139G] | 101
COC(=O)Nc1nc2cc3cn[nH]c3cc2[nH]1 [CBK016129] | 105

Compound | viability at 28.5 h, 10 µM [%]
OCC1CCCN1c1nccnc1-c1cccnc1 (centres unmarked) [CBK089049] | 101
CCN(CC)C(=O)NC(c1ccccc1OC)c1nccn1C (centres unmarked) [CBK283803] | 80.8
COCC(=O)N1CCC(c2cc3nc(C(F)(F)F)ccc3[nH]2)CC1 [CBK282185] | 110
COC(=O)c1ccc(-c2ccc(Cl)c(Cl)c2)nc1 [CBK149231] | 101
CC(=O)c1ccc(-c2cc(C(=O)NC3CCc4ccccc43)cnc2-c2ccc(Cl)cc2)s1 (centres unmarked) [CBK036762] | 96.9
CC(C)C(NC(=O)C1C=CCN1S(C)(=O)=O)c1cccs1 (centres unmarked) [CBK282701] | 82.5
Cc1c(NC(=O)CCCC(=O)O)c(=O)n(-c2ccccc2)n1C [CBK286532] | 93.1
O=C(CSc1nnc(-c2ccccc2)c(-c2ccccc2)n1)Nc1ccc(N2CCOCC2)cc1 [CBK269684] | 89.7
COc1ccc(C)cc1-n1ccc(C(=O)NC(C)(C)C(N)=O)n1 [CBK305789] | 94.1
NC1CCCN(C(=O)c2ccc(Oc3cccc(Br)c3)nc2)C1 (centres unmarked) [CBK304747] | 92.6
COc1cccc2c(C(C(=O)O)N3CCN(c4ccc(C(F)(F)F)cn4)CC3)c[nH]c12 (centres unmarked) [CBK286857] | 89.7
COC(=O)c1ccc(NC(=O)CN(c2ccc(F)c(Cl)c2)S(C)(=O)=O)cc1 [CBK267657] | 88.3
CC(C)CCc1csc(C2CN3CCCC3CO2)n1 (centres unmarked) [CBK304266] | 89.9
O=C(NC1CC2(CCCCC2)Oc2ccccc21)C1CCOC1 (centres unmarked) [CBK283760] | 105
CCCC12CN3CC(CCC)(CN(C1)C3c1ccc([N+](=O)[O-])cc1)C2=O (centres unmarked) [CBK264481] | 101
O=c1n(CCCNCc2ccc(Cl)cc2Cl)nc2n1CCCC2 [CBK305382] | 97.2
CCn1cc(CN2CCOC(c3cccc(-c4ccc(OC)cc4)n3)C2)c(C)n1 (centres unmarked) [CBK286250] | 84.4
CCOc1ccc(CN2CCN(C(=O)c3cccc(C#N)c3)CC2)cc1 [CBK304527] | 93.5
Cc1ccc(NC(=O)c2c[nH]c(=O)[nH]c2=O)cc1 [CBK113246] | 95.7
Cc1cccnc1NC(=S)Nc1ccc(S(N)(=O)=O)cc1 [CBK267049] | 111
